Test results published in patent US11414426B2, “Treatment of skin disorders” (PIQUR THERAPEUTICS AG, priority 2017, dated 2022).
pIC50: −log10 of the molar value. Marks after values point to notes of the source that are not given here.

What was measured:
[1] = Ex vivo pig skin penetration, formulations in 80% SBECD; format: in vitro ADME
Description: The control formulation Aldara (5% imiquimod) was applied to detect variations in skin permeability (local variability in the same animal and inter-subject variability). The stratum corneum was removed by tape stripping to avoid contamination during the biopsy extraction. […] One biopsy was taken from each control site. Additionally, 5 blank samples were taken.

[2] = Ex vivo pig skin PK profile, propylene glycol formulations; format: in vitro ADME
Description: Excised pig skin was placed in a climate chamber to control temperature and humidity. […] Before biopsies were taken the stratum corneum was removed by tape stripping and biopsies consisted of the remaining epidermis and entire dermis.

[3] = In vivo pig skin penetration; conditions: living pig, single topical application, propylene glycol preparations
[4] = target: T1, N-terminally GST-tagged mTOR (truncated version: amino acids 1360-2549) (Homo sapiens, UniProt P42345); test: In vitro mTOR binding assay (LanthaScreen TR-FRET); conditions: 10 nM Tracer 314, 30 min RT
T1 construct: truncated version: amino acids 1360-2549; purchased Life Technologies PR8683B
T1 sequence (P42345 1360-2549): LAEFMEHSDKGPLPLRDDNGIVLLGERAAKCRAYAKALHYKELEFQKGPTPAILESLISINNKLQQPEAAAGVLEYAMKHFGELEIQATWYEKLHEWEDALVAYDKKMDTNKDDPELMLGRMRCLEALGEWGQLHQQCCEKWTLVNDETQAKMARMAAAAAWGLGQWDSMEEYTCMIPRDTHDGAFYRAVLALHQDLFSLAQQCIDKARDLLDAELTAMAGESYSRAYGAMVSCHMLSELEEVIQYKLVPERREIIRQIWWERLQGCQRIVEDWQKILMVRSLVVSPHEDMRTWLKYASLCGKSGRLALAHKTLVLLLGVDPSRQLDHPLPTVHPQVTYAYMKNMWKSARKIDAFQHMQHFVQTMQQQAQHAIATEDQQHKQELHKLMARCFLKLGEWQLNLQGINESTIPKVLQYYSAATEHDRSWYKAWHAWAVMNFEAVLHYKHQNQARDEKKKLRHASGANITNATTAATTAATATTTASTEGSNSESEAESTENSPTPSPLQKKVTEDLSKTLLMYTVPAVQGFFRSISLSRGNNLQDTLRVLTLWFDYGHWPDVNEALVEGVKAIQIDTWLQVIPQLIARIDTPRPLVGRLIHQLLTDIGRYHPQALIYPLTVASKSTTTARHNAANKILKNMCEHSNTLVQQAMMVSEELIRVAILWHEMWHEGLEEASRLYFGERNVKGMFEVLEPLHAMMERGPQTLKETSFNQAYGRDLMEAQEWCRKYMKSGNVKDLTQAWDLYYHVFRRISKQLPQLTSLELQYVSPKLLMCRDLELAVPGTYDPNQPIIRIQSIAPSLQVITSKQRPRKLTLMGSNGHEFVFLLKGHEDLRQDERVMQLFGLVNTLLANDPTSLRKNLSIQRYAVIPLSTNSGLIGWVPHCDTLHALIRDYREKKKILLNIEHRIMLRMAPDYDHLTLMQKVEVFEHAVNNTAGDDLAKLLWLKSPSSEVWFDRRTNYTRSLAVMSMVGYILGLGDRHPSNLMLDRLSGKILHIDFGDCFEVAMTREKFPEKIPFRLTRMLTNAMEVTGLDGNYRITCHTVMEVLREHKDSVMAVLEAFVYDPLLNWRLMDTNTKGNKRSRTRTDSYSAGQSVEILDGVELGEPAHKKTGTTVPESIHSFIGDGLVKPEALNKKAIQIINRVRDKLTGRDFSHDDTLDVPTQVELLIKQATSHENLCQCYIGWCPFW
Description: In Vitro mTOR Binding Assay
A 10-point 4-fold serial dilution (highest concentration at 10 μmol/L and lowest concentration at 40 pmol/L) of each compound was tested for mTOR binding in duplicate in a 384-well plate. […] After 30 min incubation at RT, time-resolved FRET was measured with a Synergy 4 multi-mode microplate reader (Biotek Instruments) using the following settings: 100 microsecs delay before data collection, 200 microsecs time for data collection, 10 measurements per data point.
IC50 values of each compound were determined by plotting the emission ratio versus the compound concentrations (in logarithmic scale) and then by fitting a sigmoidal dose-response curve with variable slope to the data using GraphPad™ Prism.

[5] = Stress stability in propyleneglycol at 60° C. (HPLC); format: physicochemical; conditions: 1% in propyleneglycol, 72 h
Description: The fraction of residual test item was determined by HPLC. […] During the observation period of 72 hrs.
Equal concentrations (1%) of the test items in propyleneglycol were heated to 60° C. and the fraction of residual test item was determined by HPLC.

[6] = tested on: pPKB S473 in A2058 cells; test: In-cell Western blot, pPKB S473; format: cell-based; conditions: Homo sapiens, A2058, 1 h, 1 hour treatment, normalized to α-tubulin
Description: (§1) Cells are fixed with 4% paraformaldehyde for 30 minutes at room temperature, washed 2 times with 1% BSA in PBS, permeabilized with 0.1% Triton X-100 in PBS/1% BSA for 30 minutes at room temperature and blocked with 5% goat serum in PBS/1% BSA/0.1% Triton X-100 for 30 minutes at room temperature. […] Cells are washed 3 times 5 minutes with PBS/1% BSA/0.1% triton and plate scanned with the Odyssey Infrared Scanning system using both 700 and 800 nm channels. […] To correct for background staining in the data analysis wells are treated only with secondary antibodies.
(§2) For data analysis the mean background signal from channel 700 nm and 800 nm are subtracted from each signal in channel 700 nm and 800 nm, respectively.
(§3) IC50 values of each compound are determined by plotting the normalized pPBK S473 and pS6 S235/S236 signals, respectively, versus the compound concentrations (in logarithmic scale) and then by fitting a sigmoidal dose-response curve with variable slope to the data using GraphPad™ Prism.

[7] = tested on: pS6 S235/S236 in A2058 cells; test: In-cell Western blot, pS6 S235/S236; format: cell-based; conditions: 1 hour treatment, normalized to α-tubulin
Description: as §1, §2, §3

For `Nc1cc(C(F)F)c(-c2nc(N3C4CCC3COC4)nc(N3C4CCC3COC4)n2)cn1` [Compound 3, 5-(4-(3-oxa-8-azabicyclo[3.2.1]octan-8-yl)-6-(3-oxa-8-azabicyclo[3.2.1]octan-8-yl)-1,3,5-triazin-2-yl)-4-(difluoromethyl)pyridin-2-amine], the “intrinsic penetration properties in comparison with Aldara (5% imiquimod)” value ([1]; ex vivo pig skin) was “slightly lower”, the “penetration into pig skin (lower epidermis and dermis)” value ([1]; ex vivo, 1% experimental formulations, 80% SBECD) was “penetrated into pig skin (lower epidermis and dermis) to a significant extent” and the “skin concentration / skin PK profile” value ([2]; 1% in 100% PG) was “comparable to 1*”. For the same molecule, the “drug concentrations in the lower epidermis and dermis” value ([2]; 1% preparations containing propylene glycol, vs Aldara) was “high drug concentrations in the lower epidermis and dermis” and the “levels in epidermis and dermis after tape stripping” value [3] was “significant levels”.

Molecule `C[C@H]1COCCN1c1nc(-c2cnc(N)cc2C(F)F)nc(N2CCOC[C@@H]2C)n1` [Compound 6] has a pIC50 [4] of 7.64.

For `CO[C@H]1C[C@@H]2CC[C@@H](C)[C@@](O)(O2)C(=O)C(=O)N2CCCC[C@H]2C(=O)O[C@H]([C@H](C)C[C@@H]2CC[C@@H](O)[C@H](OC)C2)CC(=O)[C@H](C)/C=C(\C)[C@@H](O)[C@@H](OC)C(=O)[C@H](C)C[C@H](C)/C=C/C=C/C=C/1C` [Sirolimus], the “degraded (fraction of test item lost, HPLC)” value [5] was 39%.

`Nc1cc(C(F)(F)F)c(-c2cc(N3CCOCC3)nc(N3CCOCC3)n2)cn1` [BKM 120] showed a pIC50 [6] of 6.41 and a pIC50 [7] of 6.19.
